Test results: patent US12186293B2, “Therapeutic methods using decanoic acid and amino acids” (Wintermute Biomedical, Inc., priority 2018, dated 2025)

Tested on: methicillin-resistant Staphylococcus aureus (MRSA)
Test: In vitro bactericidal test on MRSA isolates (viable CFU/mL after 24 hours of treatment)
Details: average across three MRSA isolates
Experimental: Note that efficacy is reported in terms of the viable bacterial concentration (in CFU/mL) remaining after 24 hours of treatment with the drug product (in compliance with CLSI guidelines).
In this example, bacteria (MRSA isolates) are put onto fresh plates and allowed to grow for 30 hours. A suspension inoculum is made from the plates (e.g., a 1 McFarland solution in sterile water), from which the turbidity may be optically read. A standard inoculum may then be cultured in media and 100 μL of that solution combined with 100 μL of drug product and grown at various dilutions for 16-20 hrs. Duplicates may then be examined (e.g., following pelleting at 7,000 RPM for 15 min, resuspended in PBS and serial dilutions plated and grown for 24 hrs.). Duplicate plates at multiple dilutions may then be imaged and colonies counted.

In the case of `CCCCCCCCCCCCCCCCO` [CA, cetyl alcohol], the “effect of increasing amounts of CA in the UCA and LARG composition” value is reported as “decrease in efficacy”.
